In EP0175291B1, “Novel alpha-D-mannosidase inhibitor” (MICROBIAL CHEMISTRY RESEARCH FOUNDATION, priority 1984, dated 1986):
“Also recorded” adds a separate entry of the source.

What was measured:
[1] = test system: α-D-mannosidase of the leguminous plant origin; conditions: qualitative, prior art; cited from earlier work
[2] = molecular target: T1, α-D-mannosidase of the rat epididymis origin (Rattus norvegicus, UniProt Q6P762); test: α-D-mannosidase inhibitory activity, colorimetric, p-nitrophenyl-α-D-mannopyranoside substrate; type: biochemical; conditions: qualitative statement
T1 sequence (Q6P762 50-1009): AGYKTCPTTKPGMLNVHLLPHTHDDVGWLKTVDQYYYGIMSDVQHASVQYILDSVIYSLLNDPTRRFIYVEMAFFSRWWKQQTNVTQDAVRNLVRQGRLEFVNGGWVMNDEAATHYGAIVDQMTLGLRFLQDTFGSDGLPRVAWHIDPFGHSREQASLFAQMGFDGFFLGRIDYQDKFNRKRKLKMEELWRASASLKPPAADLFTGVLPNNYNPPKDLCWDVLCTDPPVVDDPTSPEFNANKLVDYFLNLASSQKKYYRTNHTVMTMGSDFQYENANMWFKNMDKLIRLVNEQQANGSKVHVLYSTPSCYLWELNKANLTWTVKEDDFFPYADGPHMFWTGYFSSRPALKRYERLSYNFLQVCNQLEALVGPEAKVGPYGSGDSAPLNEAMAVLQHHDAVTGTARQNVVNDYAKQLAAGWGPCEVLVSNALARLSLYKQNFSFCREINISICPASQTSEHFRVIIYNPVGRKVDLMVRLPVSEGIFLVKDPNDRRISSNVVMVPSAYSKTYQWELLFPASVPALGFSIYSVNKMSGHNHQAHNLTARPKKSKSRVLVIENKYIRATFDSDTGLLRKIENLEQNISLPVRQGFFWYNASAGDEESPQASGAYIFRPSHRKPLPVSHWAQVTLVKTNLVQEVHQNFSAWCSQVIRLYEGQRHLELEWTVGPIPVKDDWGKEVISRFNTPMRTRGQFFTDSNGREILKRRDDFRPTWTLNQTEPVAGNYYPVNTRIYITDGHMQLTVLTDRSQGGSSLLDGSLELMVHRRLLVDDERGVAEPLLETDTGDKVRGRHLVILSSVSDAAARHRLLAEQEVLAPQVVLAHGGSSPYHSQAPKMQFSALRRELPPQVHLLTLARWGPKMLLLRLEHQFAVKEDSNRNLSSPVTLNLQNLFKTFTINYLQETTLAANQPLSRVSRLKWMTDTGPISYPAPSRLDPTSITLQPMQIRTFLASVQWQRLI
Experimental: Assay of the compounds according to this invention is performed by measuring their α-D-mannosidase inhibitory activity. The activity of α-D-mannosidase is determined by colorimetrically measuring the amount of p-nitrophenol that has been liberated when p-nitrophenyl-α-D-mannopyranoside (Koch-Light Laboratories, England) as a substrate is hydrolyzed with α-D-mannosidase of the rat epididymis origin (a fraction obtained by precipitation with 20 - 80% ammonium sulfate at the Institute of Microbial Chemistry). Details of said procedure are as follows: p-Nitro-phenyl-α-D-mannopyranoside is dissolved in 50% methanol to make a 0.04M solution. To 0.05 ml of the 0.04M substrate solution are added 0.25 ml of a 0.1M acetate buffer (pH 4.5) and 0.15 ml of water or an aqueous solution containing the test compound. The mixture is heated at 37°C for 3 minutes, and 0.05 ml of -D-mannosidase is added. […] The reaction mixture is measured for the absorbance (A) at 400 nm. Separately, the control mixture comprising only water and being free from the aforesaid test compound solution is measured for the absorbance termed (b). The α-D-mannosidase inhibition rate (%) is calculated from the equation (b - a)/b x 100. […]

| SMILES | inhibition of α-D-mannosidase of the leguminous plant origin, in words [1] | inhibition of α-D-mannosidase of the animal origin (rat epididymides), in words [2] |
| --- | --- | --- |
| O[C@H]1[C@H]2[C@H](O)CCCN2C[C@H]1O [Swainsonine] | inhibits | – |
| C[S+]([O-])C1C(N)C(O)C(O)C1O (stereo not drawn) [mannostatin S-oxide] | – | stronghly inhibit; also recorded: strongly inhibit |
| CSC1C(N)C(O)C(O)C1O (stereo not drawn) [mannostatin] | – | stronghly inhibit; also recorded: strongly inhibit |
